Results as given in the NIST ThermoML archive (doi:10.1021/je500498m).
Where “and” joins values, the source holds several entries; their conditions need not be identical. Identical values can stand only once. ± gives the expanded uncertainty stated by the source.

Experiments:
[1] = for speed of sound: 100 kPa, Sing-around technique in a fixed-path interferometer; for speed of sound / viscosity / mass density: Liquid; for viscosity / mass density: 101 kPa; for viscosity: Falling or rolling sphere viscometry; for mass density: Vibrating tube method; for surface tension liquid-gas: 294.4 K, Pendant drop shape
[2] = xn = mol fraction of the nth substance listed; details: x1 = 1; for speed of sound: 100 kPa, Sing-around technique in a fixed-path interferometer; for speed of sound / viscosity / mass density: Liquid; for viscosity / mass density: 101 kPa; for viscosity: Falling or rolling sphere viscometry; for mass density: Vibrating tube method; for surface tension liquid-gas: 294.4 K, Pendant drop shape

CCc1ccccc1 [ethylbenzene]
[1]
Details	mass density [kg/m3]	speed of sound [m/s]	viscosity [mPa·s]
293.15 K	866.95 ± 0.31	1339.7 ± 0.7	0.67 ± 0.01
303.15 K	858.15 ± 0.31	1298.1 ± 0.7	0.59 ± 0.01
313.15 K	849.29 ± 0.31	1256.9 ± 0.7	–
323.15 K	840.38 ± 0.31	1216.4 ± 0.7	0.48 ± 0.01
333.15 K	831.4 ± 0.32	1176.4 ± 0.7	0.44 ± 0.01
343.15 K	822.3 ± 0.3	–	0.4 ± 0.01
353.15 K	813.1 ± 0.3	–	0.36 ± 0.01
363.15 K	803.7 ± 0.3	–	0.33 ± 0.01
373.15 K	794.2 ± 0.3	–	0.31 ± 0.01

Details	surface tension liquid-gas [mN/m]
[1]	29.2 ± 0.4

CCc1ccccc1 [ethylbenzene] + CCCCCCCCCCCCCCCC
[2]
Details	mass density [kg/m3]	speed of sound [m/s]	viscosity [mPa·s]
293.15 K	866.95 ± 0.31	1339.7 ± 0.7	0.67 ± 0.01
303.15 K	858.15 ± 0.31	1298.1 ± 0.7	0.59 ± 0.01
313.15 K	849.29 ± 0.31	1256.9 ± 0.7	–
323.15 K	840.38 ± 0.31	1216.4 ± 0.7	0.48 ± 0.01
333.15 K	831.4 ± 0.32	1176.4 ± 0.7	0.44 ± 0.01
343.15 K	822.3 ± 0.3	–	0.4 ± 0.01
353.15 K	813.1 ± 0.3	–	0.36 ± 0.01
363.15 K	803.7 ± 0.3	–	0.33 ± 0.01
373.15 K	794.2 ± 0.3	–	0.31 ± 0.01

Details	surface tension liquid-gas [mN/m]
[2]	29.2 ± 0.4

CCCCCCCCCCCCCCCC [hexadecane]
[1]
Details	mass density [kg/m3]	speed of sound [m/s]	viscosity
293.15 K	773.49 ± 0.33	1357.3 ± 0.9	3.44 ± 0.03 mPa·s
303.15 K	766.55 ± 0.34	1320 ± 0.9	2.72 ± 0.02 mPa·s
313.15 K	759.63 ± 0.34	1283.3 ± 0.9	–
323.15 K	752.71 ± 0.34	1247.3 ± 0.9	1.82 ± 0.02 mPa·s
333.15 K	745.79 ± 0.34	1212 ± 0.9	1.54 ± 0.02 mPa·s and 1.53 ± 0.02 mPa·s
343.15 K	738.9 ± 0.3	–	1.31 ± 0.02 mPa·s
353.15 K	731.8 ± 0.3	–	1.13 ± 0.01 mPa·s
363.15 K	724.7 ± 0.3	–	0.99 ± 0.01 mPa·s
373.15 K	717.5 ± 0.3	–	0.87 ± 0.01 mPa·s

Details	surface tension liquid-gas [mN/m]
[1]	27.3 ± 0.4

Cc1ccccc1 [toluene]
[1]
Details	mass density [kg/m3]	speed of sound [m/s]	viscosity [mPa·s]
293.15 K	866.84 ± 0.31	1326.8 ± 0.8	0.59 ± 0.01
303.15 K	857.53 ± 0.31	1283.7 ± 0.7	0.52 ± 0.01
313.15 K	848.14 ± 0.32	1241.1 ± 0.7	–
323.15 K	838.7 ± 0.32	1199 ± 0.7	0.42 ± 0.01
333.15 K	829.16 ± 0.32	1157.6 ± 0.7	0.38 ± 0.01
343.15 K	819.6 ± 0.3	–	0.35 ± 0.01
353.15 K	809.7 ± 0.3	–	0.32 ± 0.01
363.15 K	799.7 ± 0.3	–	0.27 ± 0.01

Details	surface tension liquid-gas [mN/m]
[1]	28.4 ± 0.4

Cc1ccccc1 [toluene] + CCCCCCCCCCCCCCCC
[2]
Details	mass density [kg/m3]	speed of sound [m/s]	viscosity [mPa·s]
293.15 K	866.84 ± 0.31	1326.8 ± 0.8	0.59 ± 0.01
303.15 K	857.53 ± 0.31	1283.7 ± 0.7	0.52 ± 0.01
313.15 K	848.14 ± 0.32	1241.1 ± 0.7	–
323.15 K	838.7 ± 0.32	1199 ± 0.7	0.42 ± 0.01
333.15 K	829.16 ± 0.32	1157.6 ± 0.7	0.38 ± 0.01
343.15 K	819.6 ± 0.3	–	0.35 ± 0.01
353.15 K	809.7 ± 0.3	–	0.32 ± 0.01
363.15 K	799.7 ± 0.3	–	0.27 ± 0.01

Details	surface tension liquid-gas [mN/m]
[2]	28.4 ± 0.4
